Results as given in US10106529B2, “Compounds that modulate intracellular calcium” (CalciMedica, Inc., priority 2011, dated 2018).

What was measured:
[1] = test system: RBL-2H3 cells; experiment: Fluorescence-based assay of store-operated calcium entry in RBL-2H3 cells; type: cell-based, rat; set-up: key to RBL-2H3 (IC50, μmol): A, IC50 < 0.6 μM; B, IC50 = 0.6-1.2 μM; C, IC50 > 1.2 μM; — no fit; conditions: thapsigargin, inhibition of Upslope of fluorescence after calcium addition; for IC50: Rattus norvegicus, read-out: RBL-2H3 (IC50, μmol)
Experimental: (§1) Fluorescence-based assays are used for screening the compounds described herein, such as compounds of Formulas (I), (IA), (II), (IIA), (III), (IIIA), (IV), (IVA), (V), (VA), (VI), (VIA), (VII), (VIIA), (VIII), (VIIIA), (IX), (IXA), (X), (XI), (XIA), (XII), or (XIIA) which modulate intracellular calcium.
B. Fluorescence-Based Assay of Store-Operated Calcium Entry in RBL-2H3 Cells.
RBL-2H3 cells are obtained from ATCC and maintained in complete medium with 10% FBS at 37° C./6% CO2.
The day prior to performing the assay, RBL-2H3 cells are plated in 50 μL of complete medium in a 384 well plate. Cells are grown at 37° C./6% CO2 overnight and grow to 50-60% confluence by the next day. On the assay day, 1.5 µM Fluo-4-AM dye (Invitrogen) in complete medium is added and incubated for 1 hour at RT. Cells are washed twice in Ca^2+-free HBSS buffer and 35 μL Ca^2+-free HBSS buffer is added to each well. 10 μL of a test compound prepared in a Ca^2+-free HBSS solution at 4.5× of the desired concentration is added to a well and incubated for 5 minutes at RT. 10 μL of thapsigargin prepared in a Ca^2+-free HBSS solution at 5.5× of the desired concentration (5.5 uM) is added to each well and incubated for an additional 25 minutes. The initial baseline fluorescence signal is measured with a FLIPR^384 (Molecular Devices) plate reader. 5 μL of 12× calcium in HBSS (12 mM) is added and changes in cellular fluorescence are measured with the FLIPR^384 plate reader. In each well, the change in the fluorescent signal as a function of time due to calcium entry into the cell is determined by calculating the difference between the fluorescent signal measured 7 seconds after calcium addition and the initial baseline fluorescence signal at time zero (t=0). This parameter is designated Upslope. The IC50 value is calculated as the concentration at which 50% of the Upslope is inhibited.

[2] = target: T1, Orai1/STIM1 (Homo sapiens, UniProt Q96D31); experiment: Fluorescence-based assay of store-operated calcium entry in Orai1/STIM1 stable cells; type: cell-based; set-up: key to Orai1/STIM1 (IC50, μmol): A, IC50 < 0.6 μM; B, IC50 = 0.6-1.2 μM; C, IC50 > 1.2 μM; — no fit; conditions: HEK-293 cells stably expressing human STIM1 and Orai1, inhibition of Peak-Basal fluorescence signal after calcium addition; for IC50: read-out: Orai1/STIM1 (IC50, μmol)
T1 construct: c-myc (C); expressed in transfected cells; host or cells: HEK-293 cells stably expressing recombinant human STIM1 and Orai1
Description: as §1
A. Fluorescence-Based Assay of Store-Operated Calcium Entry in Orai1/STIM1 Stable Cells.
Cells stably expressing recombinant human STIM1 and Orai1 are generated by transfecting a human Orai1 expression plasmid (pcDNA3.1-Orai1-cmyc) into HEK-293 cells stably overexpressing human STIM1 (Roos et al. 2005 JCB 169(3): 435-445). Colonies of cells stably expressing both STIM1 and Orai1 proteins are selected and then subcloned by limiting dilution. Cells were cultured at 37° C./6% CO2 in complete medium with 10% FBS and appropriate selection markers.
The day prior to performing the assay Orai1/STIM1 stable cells are plated in 50 μL of complete medium at 90-95% confluence in a 384 well plate. Cells are grown at 37° C./6% CO2 overnight. On the day of the assay, 1.5 μM fluo-4-AM (Invitrogen) in complete medium is added to the cells, which are then incubated for 1 hour at RT. Cells are washed once in Ca^2+-free HBSS (Hank's buffered saline solution) and 35 μl of Ca^2+-free HBSS is added to each well. Test compounds are added to wells in a 10 μL Ca^2+-free HBSS solution, prepared at 4.5× the desired final concentration, and incubated for 30 minutes at RT. The initial baseline fluorescence signal is then measured with a FLIPR^384 (Molecular Devices) plate reader. Calcium entry is initiated by adding 5 μl of 10×CaCl2 (10 mM) in HBSS, and changes in cellular fluorescence are measured with the FLIPR^384 plate reader. In each well, the magnitude of the fluorescence signal as a result of calcium entry into the cell is determined by calculating the difference between the peak fluorescence signal measured after calcium addition and the initial baseline fluorescence signal (designated Peak-Basal). IC50 values are typically calculated as the concentration that inhibited 50% of the Peak-Basal signal.

T1 sequence (Q96D31 whole entry): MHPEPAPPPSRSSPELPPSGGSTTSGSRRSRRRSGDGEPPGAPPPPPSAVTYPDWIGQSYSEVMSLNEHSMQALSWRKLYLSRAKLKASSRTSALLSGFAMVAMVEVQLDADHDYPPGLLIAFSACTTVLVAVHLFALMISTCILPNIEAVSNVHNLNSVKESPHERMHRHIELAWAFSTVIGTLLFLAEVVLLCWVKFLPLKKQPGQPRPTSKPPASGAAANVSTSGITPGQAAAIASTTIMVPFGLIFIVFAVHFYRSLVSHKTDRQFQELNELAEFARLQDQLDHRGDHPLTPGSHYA

Structure (SMILES)	IC50 [1]	IC50 [2]	Orai1/STIM1 (IC50, μmol) [2]	RBL-2H3 (IC50, μmol) [1]
Fc1ccc(CNc2ccc(-c3cc4c(cc3Cl)OC(F)(F)O4)cn2)c(Cl)c1 [Compound 13]	< 600 nM	> 1200 nM		
COc1cc(F)c(CNc2ncc(-c3cc4c(cc3C)OC(F)(F)O4)cn2)c(F)c1 [Compound 127, N-(2,6-difluoro-4-methoxybenzyl)-5-(2,2-difluoro-6-methylbenzo[d][1,3]dioxol-5-yl)pyrimidin-2-amine]	< 600 nM	< 600 nM		
Cc1nc(C(F)(F)F)cn1-c1ccc(NCc2c(F)cc(F)cc2F)nc1 [Compound 108, 5-(2-methyl-4-(trifluoromethyl)-1H-imidazol-1-yl)-N-(2,4,6-trifluorobenzyl)pyridin-2-amine]	< 600 nM	600 to 1200 nM		
Fc1cccc(F)c1CNc1ccc(-c2cc3c(cc2Cl)OCCO3)cn1 [Compound 42, 5-(7-chloro-2,3-dihydrobenzo[b][1,4]dioxin-6-yl)-N-(2,6-difluorobenzyl)pyridin-2-amine]	< 600 nM	> 1200 nM		
COc1ccc(F)cc1CNc1ccc(-c2cc3c(cc2Cl)OC(F)(F)O3)cn1 [Compound 14]	< 600 nM		—	
Cc1ccccc1CNc1ccc(-c2cc3c(cc2C)OC(F)(F)O3)cn1 [Compound 19]	< 600 nM	< 600 nM		
Fc1cccc(F)c1CNc1ccc(-c2cc3c(cc2Cl)OC(F)(F)O3)cn1 [Compound 2, 5-(6-chloro-2,2-difluorobenzo[d][1,3]dioxol-5-yl)-N-(2,6-difluorobenzyl)pyridin-2-amine]	< 600 nM	600 to 1200 nM		
Cc1cc2c(cc1-c1ccc(NCc3c(F)cccc3Cl)nc1)OC(F)(F)O2 [Compound 22]	< 600 nM	> 1200 nM		
Cc1cc2c(cc1-c1cnc(NCc3c(F)cc(F)cc3F)cn1)OC(F)(F)O2 [Compound 23]	< 600 nM	600 to 1200 nM		
Cc1ccc(F)cc1CNc1ccc(-c2cc3c(cc2C)CCC3)cn1 [Compound 18]	< 600 nM		—	
Cc1nc(C(F)(F)F)cn1-c1ccc(NCc2c(F)cncc2F)nc1 [Compound 110, N-((3,5-difluoropyridin-4-yl)methyl)-5-(2-methyl-4-(trifluoromethyl)-1H-imidazol-1-yl)pyridin-2-amine]	> 1200 nM		—	
Cc1cc2c(cc1-c1ccc(NCc3c(F)cccc3F)nc1)OC(F)(F)O2 [Compound 4, 5-(2,2-difluoro-6-methylbenzo[d][1,3]dioxol-5-yl)-N-(2,6-difluorobenzyl)pyridin-2-amine]	< 600 nM	600 to 1200 nM		
Cc1cc(Cl)ncc1-c1cnc(NCc2c(F)cc(Cl)cc2F)nc1 [Compound 129, N-(4-chloro-2,6-difluorobenzyl)-5-(6-chloro-4-methylpyridin-3-yl)pyrimidin-2-amine]	< 600 nM	< 600 nM		
COc1cc(F)c(CNc2ccc(-n3nc(C(F)(F)F)cc3C)cn2)c(F)c1 [Compound 120, N-(2,6-difluoro-4-methoxybenzyl)-5-(5-methyl-3-(trifluoromethyl)-1H-pyrazol-1-yl)pyridin-2-amine]	< 600 nM	600 to 1200 nM		
Cc1cc2c(cc1-c1ccc(NCc3c(F)cccc3F)cn1)OC(F)(F)O2 [Compound 6, 6-(2,2-difluoro-6-methylbenzo[d][1,3]dioxol-5-yl)-N-(2,6-difluorobenzyl)pyridin-3-amine]	< 600 nM	< 600 nM		
Cc1cc2c(cc1-c1ccc(NCc3ccccc3Cl)nc1)OC(F)(F)O2 [Compound 20]	< 600 nM	> 1200 nM		
COc1ccccc1CNc1ccc(-c2cc3c(cc2Cl)OC(F)(F)O3)cn1 [Compound 15]	< 600 nM	> 1200 nM		
Fc1cc(F)c(CNc2ccc(Oc3ccccc3C(F)(F)F)cn2)c(F)c1 [Compound 134]	< 600 nM	< 600 nM		
Cc1cc2c(cc1-c1cnc(OCc3c(F)cccc3Cl)nc1)OC(F)(F)O2 [Compound 70]	< 600 nM	> 1200 nM		

Other lines, results leading:

IC50 [1]	IC50 [2]	Orai1/STIM1 (IC50, μmol) [2]	RBL-2H3 (IC50, μmol) [1]	Structure (SMILES)
< 600 nM	< 600 nM			Cn1nc(C(F)(F)F)cc1-c1ccc(NCc2c(F)cc(F)cc2F)nc1 [Compound 82, 5-(1-methyl-3-(trifluoromethyl)-1H-pyrazol-5-yl)-N-(2,4,6-trifluorobenzyl)pyridin-2-amine]
< 600 nM		—		FC1(F)Oc2cc(Cl)c(-c3ccc(NCc4ccccc4C(F)(F)F)nc3)cc2O1 [Compound 12, 5-(6-chloro-2,2-difluorobenzo[d][1,3]dioxol-5-yl)-N-(2-(trifluoromethyl)benzyl)pyridin-2-amine]
< 600 nM		—		Cc1c(F)cccc1CNc1ccc(-n2nc(C(F)(F)F)cc2C)cn1 [Compound 122, N-(3-fluoro-2-methylbenzyl)-5-(5-methyl-3-(trifluoromethyl)-1H-pyrazol-1-yl)pyridin-2-amine]
< 600 nM	< 600 nM			Cn1nc(C(F)(F)F)cc1-c1ccc(NCc2c(F)ccc(F)c2F)nc1 [Compound 78, 5-(1-methyl-3-(trifluoromethyl)-1H-pyrazol-5-yl)-N-(2,3,6-trifluorobenzyl)pyridin-2-amine]
< 600 nM	< 600 nM			Cc1cccc(F)c1CNc1ccc(-c2cc(C(F)(F)F)nn2C)cn1 [Compound 86, N-(2-fluoro-6-methylbenzyl)-5-(1-methyl-3-(trifluoromethyl)-1H-pyrazol-5-yl)pyridin-2-amine]
		—	—	Cn1nc(C(F)(F)F)cc1-c1cnc(OCc2c(F)cccc2Cl)nc1 [Compound 69]
< 600 nM	< 600 nM			Cc1cc(C(F)(F)F)nn1-c1ccc(NCc2c(F)cc(F)cc2F)nc1 [Compound 118, 5-(5-methyl-3-(trifluoromethyl)-1H-pyrazol-1-yl)-N-(2,4,6-trifluorobenzyl)pyridin-2-amine]
< 600 nM	600 to 1200 nM			Cn1nc(C(F)(F)F)cc1-c1ccc(NC(=O)c2c(F)cccc2F)nc1 [Compound 74, (2,6-difluorophenyl)-N-{5-[1-methyl-3-(trifluoromethyl)pyrazol-5-yl](2-pyridyl)}carboxamide]
< 600 nM	< 600 nM			Cn1nc(C(F)(F)F)cc1-c1ccc(NCc2ccccc2F)nc1N [Compound 143, N^2-(2-fluorobenzyl)-5-(1-methyl-3-(trifluoromethyl)-1H-pyrazol-5-yl)pyridine-2,6-diamine]
< 600 nM	< 600 nM			Cc1cc(C(F)(F)F)nn1-c1ccc(NCc2c(F)cccc2F)nc1 [Compound 116, N-(2,6-difluorobenzyl)-5-(5-methyl-3-(trifluoromethyl)-1H-pyrazol-1-yl)pyridin-2-amine]
< 600 nM	< 600 nM			Fc1cccc(F)c1CNc1ccc(-n2nc(C(F)(F)F)cc2C(F)(F)F)cn1 [Compound 100, 5-(3,5-bis(trifluoromethyl)-1H-pyrazol-1-yl)-N-(2,6-difluorobenzyl)pyridin-2-amine]
